From publication PMC10216478, “Development of a Non-Peptide Angiotensin II Type 1 Receptor Ligand by Structural Modification of Olmesartan as a Biased Agonist” (Biomedicines, 2023)
Changes are numbered by the printed parent chain.

Columns and labels:
[1] = tested on: human coronary artery smooth muscle cells; set-up: method as in PMID 15785012; conditions: as well as a stably expressed AT1 receptor cell line; cited from earlier work
[2] = tested on: AT1 receptor; set-up: method as in PMID 15785012; conditions: cited from earlier work
[3] = target: T1, AT1 L112A receptor (Rattus norvegicus, UniProt P25095, L112A); experiment: IP production assay in COS7 cells expressing AT1-L112A receptor; type: cell-based; conditions: 1 µM ligands or 0.1 µM Ang II, 30 min, n = 5, vs. (-)
T1 construct: expressed in transfected cells; host or cells: COS7
T1 sequence (P25095 1-359 L112A): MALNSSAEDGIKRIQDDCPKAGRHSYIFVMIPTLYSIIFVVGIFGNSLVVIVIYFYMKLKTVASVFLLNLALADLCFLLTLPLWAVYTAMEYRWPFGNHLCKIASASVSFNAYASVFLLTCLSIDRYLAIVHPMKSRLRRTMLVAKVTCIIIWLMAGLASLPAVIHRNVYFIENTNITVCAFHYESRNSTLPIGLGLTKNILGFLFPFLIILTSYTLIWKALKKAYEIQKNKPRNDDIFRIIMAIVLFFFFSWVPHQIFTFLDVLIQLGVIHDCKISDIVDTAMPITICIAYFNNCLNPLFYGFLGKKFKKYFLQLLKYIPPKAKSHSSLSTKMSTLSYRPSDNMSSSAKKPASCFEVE
Description: (§1) The synthetic rat AT1 receptor gene, which was cloned in the shuttle expression vector pMT-2, was used for expression and mutagenesis, as described previously. […] In the experiments, cells were grown without a cell-growth supplement. To express the AT1 receptor protein, 10 µg of purified plasmid DNA per 10^7 cells was used in the transfection. Wild-type and mutated AT1 receptors were transiently transfected into cells using Lipofectamine 2000 liposomal reagent (Roche Applied Science, Penzberg, Germany). Cells were plated and grown and were 70–90% confluent at the time of transfection. We incubated plasmid DNA (10 µg)–lipid (10 µL) complexes for 5 min at room temperature and added and incubated the complexes with cells for 24 h. We then analyzed the parameters in transfected cells. […] Transfected cells that had been cultured for 48–72 h were harvested. Cell membranes were prepared using the nitrogen Parr bomb disruption or freeze–thaw methods.
(§2) Ligand (such as agonist or antagonist)-induced IP production through the AT1 receptor in transfected COS7 cells transiently expressing the AT1 receptor was measured to evaluate cell signaling as a second messenger for controlling blood pressure, since the increases in the intracellular Ca^2+ concentration were the result of IP accumulation, which indicated vasoconstriction. As a surrogate model with higher levels of AT1 receptor expression, COS7 cells are suitable for IP measurement because it is easy to detect differences in IP production. Cells were labeled for 24 h with [^3H]-myoinositol at 37 °C in DMEM containing 10% FBS. Next, the cells were washed with buffer 3 times and incubated with a medium containing 10 mM LiCl for 20 min; 0.1 µM Ang II or 1 µM ligands were added and incubation was continued for another 30 min at 37 °C. After incubation, the medium was removed, and total soluble IP was extracted from the cells using the perchloric acid extraction method, as described previously. Cells were plated at a field density of 5 × 10^3 cells/cm^2 in 60 mm dishes and cultured in a fresh growth medium at 37 °C in a DMEM 5% CO2 incubator. […] The culture medium was changed 48 h after transfection and 1.5 mL of 1 μCi/mL of [^3H]-myoinositol was added to each 60-mm dish at 37 °C in DMEM containing 10% FBS. After labeling, the cells were washed with buffer 3 times and incubated with a medium containing 10 mM LiCl for 20 min. The indicated concentration of ligands was added and incubation was continued for an additional 30 min at 37 °C. After incubation, the medium was removed, and total soluble IP was extracted from the cells using the perchloric acid extraction method. Total IP production was expressed as the sum of radioactivity, as described previously.

[4] = target: T2, AT1 Q257A receptor (Rattus norvegicus, UniProt P25095, Q257A); experiment: IP production assay in COS7 cells expressing AT1-Q257A receptor; type: cell-based; conditions: 1 µM ligands or 0.1 µM Ang II, 30 min, n = 5, vs. (-)
T2 construct: expressed in transfected cells; host or cells: COS7
T2 sequence (P25095 1-359 Q257A): T1 sequence (P25095 1-359 L112A) with A112L, Q257A
Description: as §1, §2

[5] = target: T1, AT1 L112A receptor; experiment: Immunoblotting of ERK 1/2 activation in COS7 cells overexpressing AT1-L112A receptor; type: cell-based; conditions: 1 µM ligands or 0.1 µM Ang II, 10 min, n = 5, vs. (-)
Description: as §1
(§3) In in vitro studies, ERK 1/2 activation by 1 µM ligands or 0.1 µM Ang II incubated for 10 min was measured using COS7 cells that overexpressed AT1 wild-type and mutant receptors. ERK activity was measured in cells maintained for 18 h in DMEM containing 0.1% serum. At the end of the stimulation, the culture medium was removed by aspiration, the cells were washed with ice-cold phosphate-buffered saline, and the dishes were frozen in liquid nitrogen. The cells were scraped using a scraper after melting, and the scraped cells were transferred to a tube. We homogenized the cells in lysis buffer plus protease inhibitors and determined the protein concentration using the bicinchoninic acid method. […] We fractionated total proteins using sodium dodecyl sulfate polyacrylamide gel electrophoresis; we then transferred the proteins to a Hybond nitrocellulose membrane and blocked the blotted membranes with 10% bovine serum albumin in tris-buffered saline buffer (50 mM Tris–HCl pH 7.6, 150 mM NaCl) for 1 h at room temperature. […] An enhanced chemiluminescent substrate system (Amersham, Buckinghamshire, UK) was used. The signal was independently quantified by digital image analysis (ImageJ, National Institutes of Health, Bethesda, MD, USA).

[6] = target: T3, AT1 wild-type receptor (Rattus norvegicus, UniProt P25095); experiment: Immunoblotting of ERK 1/2 activation in COS7 cells overexpressing AT1 wild-type receptor; type: cell-based; conditions: AT1 wild-type receptor, COS7 cells; 1 µM ligands or 0.1 µM Ang II, 10 min; n = 5; vs. (-)
T3 construct: expressed in transfected cells; host or cells: COS7
T3 sequence (P25095 1-359): T1 sequence (P25095 1-359 L112A) with A112L
Description: as §1, §3

[7] = target: T2, AT1 Q257A receptor; experiment: Immunoblotting of ERK 1/2 activation in COS7 cells overexpressing AT1-Q257A receptor; type: cell-based; conditions: 1 µM ligands or 0.1 µM Ang II, 10 min, n = 5, vs. (-)
Description: as §1, with “Cell membranes were prepared using the nitrogen Parr bomb disruption or freeze–thaw methods.” left out
In in vitro studies, ERK 1/2 activation by 1 µM ligands or 0.1 µM Ang II incubated for 10 min was measured using COS7 cells that overexpressed AT1 wild-type and mutant receptors. ERK activity was measured in cells maintained for 18 h in DMEM containing 0.1% serum. […] We homogenized the cells in lysis buffer plus protease inhibitors and determined the protein concentration using the bicinchoninic acid method. […] The signal was independently quantified by digital image analysis (ImageJ, National Institutes of Health, Bethesda, MD, USA).

[8] = target: T3, AT1 wild-type receptor; experiment: IP production assay in COS7 cells expressing AT1 wild-type receptor; type: cell-based; conditions: AT1 wild-type receptor, COS7 cells; 1 µM ligands or 0.1 µM Ang II, 30 min; n = 5; vs. (-)
Description: as §1, §2

Row | Effect on IP production [3] | Effect on IP production [4] | ERK1/2 activation [5] | ERK1/2 activation [6] | ERK1/2 activation [7] | Effect on IP production [8] | Substance | Gq-independent ERK 1/2 activation [1] | Gq-dependent inositol phosphate (IP) production [2]
1 | – | – | – | – | – | – | [Sar^1, Ile^4, Ile^8]Ang II | still activated | did not increase
2 | significantly increased IP production | significantly increased IP production | significantly activated ERK1/2 | significantly activated ERK1/2 | significantly activated ERK1/2 | significantly increased IP production | angiotensin II [Ang II, reference compound] | – | –
